From patent US9249148B2, “Tris(hetero)arylpyrazoles and use thereof” (AICURIS GMBH & CO. KG, priority 2012, dated 2016)

What was measured:
Assay type in all cases: cell-based
HIV-1NL4-3 K103N-Y181C = assay: Luminescence Reduction Assay, luciferase reporter virus with resistance mutations in MT4 cells; conditions: Human immunodeficiency virus 1, MT4, read-out: EC50 (μM) MT4 cells HIV-1NL4-3 K103N-Y181C 2% FBS
Description: (§1) For this assay, HIV-1NL4-3 reporter viruses are used which carry the luciferase164 gene (lu164) in place of the nef gene. The viruses are generated by transfection of 293T cells with the corresponding proviral pNL4-3 plasmid (Lipofectamine Reagent, Invitrogen, Karlsruhe, Germany). Starting from the proviral plasmid DNA, viruses with defined resistance mutations (single or combined) are produced in the reverse transcriptase gene using the “QuikChange II XL Site-Directed Mutagenesis Kit” (Stratagene, Cedar Creek, Tex., USA). Resistance mutations include, among others: L74V, A98G, A98S, L100I, K101E, K103N, V106A, V106I, V106M, V108I, V108A, E138K, V179I, V179D, V179E, Y181C, Y181I, Y188L, G190A, G1905, H221Y, P225H, F227C, F227L, F227V, M230I, M230L, L234I, P236L, N348I, T369A, T369I, T369V. MT4 cells infected with these reporter viruses (NIH AIDS Research and Reference Reagent Program) secrete luciferase into the medium, which enables the luminometric quantification of the virus replication.
(§2) For starting a 96-well MTP, 3 million MT4 cells are pelleted, suspended in 1 ml RPMI 1640 medium without phenol red (Invitrogen, Karlsruhe, Germany)/10% FBS/2 mM L-glutamine/1% Pen/Strep (Invitrogen, Karlsruhe, Germany), and incubated for 2 hours at 37° C. with a suitable quantity of the relevant HIV-1NL4-3 reporter virus (pellet infection). Non-adsorbed viruses are then washed out, and the infected cells are pelleted again and suspended in 8 ml RPMI 1640 medium without phenol red/2% or 10% FBS/2 mM L-glutamine/1% Pen/Strep. From this, 90 μl per well is pipetted into a white 96-well MTP to 10 μl of test substance at a suitable level of dilution. In order to avoid edge effects, the edge wells of the MTP are not used for substance dilutions. The second vertical row of the MTP contains only infected cells (virus control) and the eleventh vertical row only non-infected cells (cell control), each in RPMI 1640 medium without phenol red/2% or 10% FBS/2 mM L-glutamine/1% Pen/Strep. The remaining wells of the MTP contain the compounds in accordance with the invention in various concentrations, starting from the third vertical row, from which the test substances are diluted in 3-step sequences up to the tenth vertical row by a factor of 3^7. The test substances are dissolved in DMSO; the final DMSO concentration in the test formulation is 1%.

HIV-1NL4-3 wildtype = assay: Luminescence Reduction Assay, luciferase reporter virus in MT4 cells; conditions: Human immunodeficiency virus 1, MT4, read-out: EC50 (μM) MT4 cells HIV-1NL4-3 wildtype 2% FBS
Description: as §1, §2

HIV-1LAI wildtype = assay: alamarBlue Viability Assay with HIV-1LAI-infected MT4 cells; conditions: Human immunodeficiency virus 1, 10% FBS
Description: For starting a 96-well MTP, 3 million PBLs are pelleted, suspended in 1 ml RPMI 1640 medium/10% FBS/2 mM L-glutamine/1% Pen/Strep and incubated for 2 hours at 37° C. with a suitable quantity of the relevant HIV-1LAI (NIH AIDS Research & Reference Reagent Program, Germantown, USA) (pellet infection). Non-adsorbed viruses are then washed out, and the infected cells pelleted again and suspended in 18 ml RPMI 1640 medium/10% FBS/2 mM L-glutamine/1% Pen/Strep/Interleukin-2 (40 U/ml). From this, 180 μl per well is pipetted into a 96-well MTP to 20 μl of test substance at a suitable level of dilution. Alternatively, the HIV is added after preparation of the substance dilutes in the MTP together with the cells, and is not washed out (supernatant infection). In order to avoid edge effects, the edge wells of the MTP are not used for substance dilutions. The second vertical row of the MTP contains only infected cells (virus control) and the eleventh vertical row only non-infected cells (cell control), each in RPMI 1640 medium/10% FBS/2 mM L-glutamine/1% Pen/Strep/Interleukin-2 (40 U/ml). The remaining wells of the MTP contain the compounds in accordance with the invention in various concentrations, starting from the third vertical row, from which the test substances are diluted in 3-step sequences up to the tenth vertical row by a factor of 3^7. The test substances are dissolved in DMSO; the final DMSO concentration in the test preparation is 1%. The test samples are incubated for 5 days at 37° C./5% CO2. After 5 to 7 days, 50 μl of cell-free supernatant is removed from each well to determine its p24 content using p24 ELISA (HIV-1 p24CA Antigen Capture Assay Kit, NCI-Frederick Cancer Research and Development Center, Frederick, USA). From the resulting values of the photometric analysis (450/620 nm), the EC50 values of the test substances are determined from the resulting dose-response curves using the Prism4 software (GraphPad, San Diego, Calif.) as the concentration of treated infected cells, where the p24 quantity is 50% of the untreated infected cells.
Alternatively, MT4 cells are used in place of PBLs for testing the test substances. HIV-1LAI-infected MT4 cells (MOI 0.01, supernatant infection) are incubated in accordance with the procedure described above in RPMI 1640 medium using 2% or 10% FKS/2 mM L-glutamine/1% Pen/Strep in the presence of the test substances for 5 days at 37° C./5% CO2 (10 μl diluted substance and 90 μl cells/virus per well). 10 μl alamarBlue (Invitrogen, Karlsruhe, Germany) is then added per well and the MTPs are incubated for 3 hours at 37° C. before fluorimetric evaluation is performed (544/590 nm). Using quattroWorkflow software (Quattroresearch, Martinsried, Germany), the EC50 values of the test substances are determined from the resulting dose-response curves as the concentration of treated infected cells in which the fluorescence is 50% of that of the untreated, non-infected cells.

Row | Structure (SMILES) | EC50 (HIV-1NL4-3 K103N-Y181C) [µM] | EC50 (HIV-1NL4-3 wildtype) [µM] | EC50 (HIV-1LAI wildtype) [µM]
1 | O=C1NCc2c1cccc2-c1cc(-c2cncc(Cl)c2)n(-c2ccc(F)c(Cl)c2)n1 [Example 32] | 0.0383 | 0.0069 | 0.0273
2 | O=C1NCc2c1cccc2-c1cc(-c2cc(F)cc(Cl)c2)n(-c2cccc(Cl)c2)n1 [Example 41] | 0.152 | 0.0112 | 0.0807
3 | O=C1NCc2c1cccc2-c1cc(-c2ccc(F)c(OC(F)(F)F)c2)n(-c2cccc(Cl)c2)n1 [Example 44] | 0.458 | 0.533 | 1.91
4 | O=C1NCc2c1ccnc2-c1cc(-c2cc(F)cc(OC(F)(F)F)c2)n(-c2cccnc2)n1 [Example 6, 4-{5-[3-fluoro-5-(trifluoromethoxy)phenyl]-1-(pyridine-3-yl)-1H-pyrazole-3-yl}-2,3-dihydro-1H-pyrrolo[3,4-c]pyridine-1-one] | 0.0083 | 0.0024 | 0.0137
5 | O=C1NCc2c1ccnc2-c1cc(-c2cc(F)cc(Cl)c2)n(-c2ccc(F)c(Cl)c2)n1 [Example 1, 4-[1-(3-chloro-4-fluorophenyl)-5-(3-chloro-5-fluorophenyl)-1H-pyrazole-3-yl]-2,3-dihydro-1H-pyrrolo[3,4-c]pyridine-1-one] | 0.004 | 0.0015 | 0.0097
6 | O=C1NCc2c1ccnc2-c1cc(-c2cc(Br)cc(OC(F)(F)F)c2)n(-c2cccnc2)n1 [Example 13, 4-{5-[3-bromo-5-(trifluoromethoxy)phenyl]-1-(pyridine-3-yl)-1H-pyrazole-3-yl}-2,3-dihydro-1H-pyrrolo[3,4-c]pyridine-1-one] | 0.0025 | 0.0011 | 0.0086
7 | O=C1NCc2c1ccnc2-c1cc(-c2ccc(F)c(OC(F)(F)F)c2)n(-c2cccc(Cl)c2)n1 [Example 43] | 0.2 | 0.0568 | 0.674
8 | O=C1NCc2c1cccc2-c1cc(-c2cccc(F)c2F)n(-c2ccc(F)c(Cl)c2)n1 [Example 34] | 0.458 | 0.131 | 0.75
9 | O=C1NCc2c1ccnc2-c1cc(-c2cc(F)cc(OC(F)F)c2)n(-c2ccc(F)c(Cl)c2)n1 [Example 15, 4-{1-(3-chloro-4-fluorophenyl)-5-[3-(difluoromethoxy)-5-fluorophenyl]-1H-pyrazole-3-yl}-2,3-dihydro-1H-pyrrolo[3,4-c]pyridine-1-one] | 0.0085 | 0.0044 | 0.0171
10 | O=C1NCc2c1ccnc2-c1cc(-c2cc(Br)cc(OC(F)F)c2)n(-c2ccnc(Cl)c2)n1 [Example 20, 4-{5-[3-bromo-5-(difluoromethoxy)phenyl]-1-(2-chloropyridine-4-yl)-1H-pyrazole-3-yl}-2,3-dihydro-1H-pyrrolo[3,4-c]pyridine-1-one] | 0.004 | 0.001 | 0.0118
11 | O=C1NCc2c1cccc2-c1cc(-c2cc(F)cc(Cl)c2)n(-c2ccc(F)c(Cl)c2)n1 [Example 3, 4-[1-(3-chloro-4-fluorophenyl)-5-(3-chloro-5-fluorophenyl)-1H-pyrazole-3-yl]-2,3-dihydro-1H-isoindole-1-one] | 0.0289 | 0.006 | 0.0586
12 | N#Cc1cccc(-c2cc(-c3nccc4c3CNC4=O)nn2-c2ccc(F)cc2)c1 [Example 35] | 0.0317 | 0.0593 | 0.15
13 | O=C1NCc2c1cccc2-c1cc(-c2cccc(Cl)c2)n(-c2cccc(C(F)(F)F)c2)n1 [Example 38] | 1.18 | 0.18 | 0.948
14 | O=C1NC(=O)c2c1cccc2-c1cc(-c2cc(F)cc(OC(F)(F)F)c2)n(-c2cccnc2)n1 [Example 8, 4-{5-[3-fluoro-5-(trifluoromethoxy)phenyl]-1-(pyridine-3-yl)-1H-pyrazole-3-yl}-1H-isoindole-1,3(2H)-dione] | > 3.3 | 0.643 | > 3.3
15 | O=C1NCc2c1cccc2-c1cc(-c2cc(F)cc(OC(F)(F)F)c2)n(-c2cccnc2)n1 [Example 7, 4-{5-[3-fluoro-5-(trifluoromethoxy)phenyl]-1-(pyridine-3-yl)-1H-pyrazole-3-yl}-2,3-dihydro-1H-isoindole-1-one] | 0.0206 | 0.0107 | 0.0512
16 | O=C1NCc2c1ccnc2-c1cc(-c2cc(Cl)cc(OC(F)F)c2)n(-c2ccnc(Cl)c2)n1 [Example 17, 4-{5-[3-chloro-5-(difluoromethoxy)phenyl]-1-(2-chloropyridine-4-yl)-1H-pyrazole-3-yl}-2,3-dihydro-1H-pyrrolo[3,4-c]pyridine-1-one] | 0.0049 | 0.0011 | 0.0086
17 | O=C1NCc2c1ccnc2-c1cc(-c2cccc(OC(F)F)c2)n(-c2ccc(F)c(Cl)c2)n1 [Example 42] | 0.0194 | 0.0098 | 0.0717
18 | Cc1cc(F)cc(-c2cc(-c3nccc4c3CNC4=O)nn2-c2ccc(F)c(Cl)c2)c1 [Example 22] | 0.0077 | 0.0009 | 0.0245
19 | O=C1NCc2c1ccnc2-c1cc(-c2cc(F)cc(OC(F)(F)F)c2)n(-c2ccc(F)c(Cl)c2)n1 [Example 5, 4-{1-(3-chloro-4-fluorophenyl)-5-[3-fluoro-5-(trifluoromethoxy)phenyl]-1H-pyrazole-3-yl}-2,3-dihydro-1H-pyrrolo[3,4-c]pyridine-1-one] | 0.0117 | 0.011 | 0.15
20 | O=c1[nH][nH]c2c(-c3cc(-c4cc(F)cc(Cl)c4)n(-c4ccc(F)c(Cl)c4)n3)cccc12 [Example 29] | 1.22 | 0.39 | 2.06
21 | O=C1NCc2c1ccnc2-c1cc(-c2cc(Cl)cc(C(F)(F)F)c2)n(-c2ccc(F)c(Cl)c2)n1 [Example 30] | 0.011 | 0.0075 | 0.0881
22 | O=C1NCc2c1ccnc2-c1cc(-c2cccc(Cl)c2)n(-c2cccc(C(F)(F)F)c2)n1 [Example 37] | 0.148 | 0.0288 | 0.0835
23 | Cc1ccc(-n2nc(-c3nccc4c3CNC4=O)cc2-c2cc(F)cc(Cl)c2)cc1Cl [Example 28] | 0.0291 | 0.0172 | 0.0876
24 | O=C1NCc2c1ccnc2-c1cc(-c2cccc(F)c2F)n(-c2ccc(F)c(Cl)c2)n1 [Example 33] | 0.061 | 0.0227 | 0.0641
